The test system of this assay is TRAIL receptors on the surface of HepG2 cells. Kind of assay: Cell binding by flow cytometry. The assay is classed as cell-based, human. Here is the method: TRAIL receptor expression was evaluated on various cell surfaces. Specifically, HepG2, HT29, and HEK293T cells (2×10^5) were cultured with four types of anti-human TRAIL receptor antibodies (R&D system, MAB347, MAB6311, MAB6301, MAB633). […] Nanocage bound cells were detected with an Accuri™ C6 flow cytometer (BD Biosciences) and analyzed using FlowJo_V10 software (FlowJo). The binding specificity of TTPN to TRAIL receptor was analyzed by blocking experiments by pre-culture of anti-human TRAIL receptor antibodies and cells at 4° C. for 20 minutes. […] Thereafter, the cells were fixed with 4% paraformaldehyde and stained with Hoechst 33258 before analysis for cell binding detection in a fluorescence microscope (Nikon Eclipse Ti, Nikon). Data were analyzed using LAS AF Lite software (Leica).
(In general: In flow cytometry, cells or beads pass a laser one at a time.)

As to “TTPN: protein nanocage presenting TRAIL as natural-like homo-trimers; TRAIL 95-281 fused by linker peptide to human ferritin heavy chain”, the “binding on the surface of HepG2 cells” value (400 nM, 4° C., 20 minutes) is “greater effect than wtFTN”. Moreover, the “binding after pre-incubation with four anti-TRAIL receptor antibodies” value (HepG2, 400 nM) is given as “reduced”.
